This note sets out measurements from ChEMBL document CHEMBL4507291 (2021).

In general, inhibition refers to the change of the read-out against control, counted positive when it falls.

Assay [1] concerns the target Muscarinic acetylcholine receptor M2 (Homo sapiens) (UniProt P08172). As to conditions: Compound concentration 10.0 uM; call rule not given here.
In assay [2] the target is T1, Tyrosine-protein kinase ITK/TSK (Homo sapiens) (UniProt Q08881).
T1 sequence (whole entry): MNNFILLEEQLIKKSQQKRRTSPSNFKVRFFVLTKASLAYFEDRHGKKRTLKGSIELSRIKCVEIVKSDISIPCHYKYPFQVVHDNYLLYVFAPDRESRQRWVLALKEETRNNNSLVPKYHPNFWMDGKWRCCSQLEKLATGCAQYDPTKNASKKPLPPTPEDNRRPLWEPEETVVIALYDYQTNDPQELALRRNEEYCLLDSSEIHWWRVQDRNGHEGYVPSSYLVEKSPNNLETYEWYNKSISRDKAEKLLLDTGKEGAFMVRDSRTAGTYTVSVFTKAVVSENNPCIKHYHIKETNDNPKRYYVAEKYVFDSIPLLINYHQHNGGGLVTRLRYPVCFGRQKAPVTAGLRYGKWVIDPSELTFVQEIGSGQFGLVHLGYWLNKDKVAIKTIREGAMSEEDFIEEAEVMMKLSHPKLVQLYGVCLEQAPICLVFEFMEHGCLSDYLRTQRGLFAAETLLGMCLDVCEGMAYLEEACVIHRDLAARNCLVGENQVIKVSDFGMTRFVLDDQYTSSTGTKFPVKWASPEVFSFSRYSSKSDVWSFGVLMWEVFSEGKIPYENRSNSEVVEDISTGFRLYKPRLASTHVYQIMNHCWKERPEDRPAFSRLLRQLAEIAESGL
Nature of the assay: ITK Kinase screen. As to conditions: Compound concentration 1.0 uM.

In assay [3] the target is T2, Serine/threonine-protein kinase Sgk3 (Homo sapiens) (UniProt Q96BR1).
T2 sequence (whole entry): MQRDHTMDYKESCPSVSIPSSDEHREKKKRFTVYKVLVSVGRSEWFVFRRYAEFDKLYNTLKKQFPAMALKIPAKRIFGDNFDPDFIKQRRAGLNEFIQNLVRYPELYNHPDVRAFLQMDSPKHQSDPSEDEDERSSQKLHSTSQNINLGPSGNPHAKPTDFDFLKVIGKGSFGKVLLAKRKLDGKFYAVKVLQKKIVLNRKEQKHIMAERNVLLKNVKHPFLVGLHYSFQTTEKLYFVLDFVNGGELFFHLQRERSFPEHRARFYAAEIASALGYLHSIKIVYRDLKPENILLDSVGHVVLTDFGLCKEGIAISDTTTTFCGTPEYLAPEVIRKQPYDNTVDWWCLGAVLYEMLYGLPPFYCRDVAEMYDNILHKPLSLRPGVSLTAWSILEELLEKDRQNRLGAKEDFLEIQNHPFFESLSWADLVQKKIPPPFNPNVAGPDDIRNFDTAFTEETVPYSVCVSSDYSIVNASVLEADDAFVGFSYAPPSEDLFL
Nature of the assay: SGKL (SGK3) Kinase screen. Particulars: Compound concentration 1.0 uM.

Assay [4] addresses Ribosomal protein S6 kinase alpha-3 (Homo sapiens) (UniProt P51812). Nature of the assay: RPS6KA3 (RSK2) Kinase screen. Particulars: Compound concentration 1.0 uM.
Assay [5] addresses Cyclin-dependent kinase 1/cyclin B (Homo sapiens) (UniProt P06493+P14635+Q8WWL7+O95067). Nature of the assay: CDK1/cyclin B Kinase screen. In kind it is protein-complex assay. Particulars: Compound concentration 1.0 uM.
The target in assay [6] is Gamma-aminobutyric acid type B receptor subunit 1 (Homo sapiens) (UniProt Q9UBS5). Particulars: Rattus norvegicus; Compound concentration 10.0 uM.
Gamma-aminobutyric acid type B receptor subunit 1 (Homo sapiens), sequence (Q9UBS5 whole entry): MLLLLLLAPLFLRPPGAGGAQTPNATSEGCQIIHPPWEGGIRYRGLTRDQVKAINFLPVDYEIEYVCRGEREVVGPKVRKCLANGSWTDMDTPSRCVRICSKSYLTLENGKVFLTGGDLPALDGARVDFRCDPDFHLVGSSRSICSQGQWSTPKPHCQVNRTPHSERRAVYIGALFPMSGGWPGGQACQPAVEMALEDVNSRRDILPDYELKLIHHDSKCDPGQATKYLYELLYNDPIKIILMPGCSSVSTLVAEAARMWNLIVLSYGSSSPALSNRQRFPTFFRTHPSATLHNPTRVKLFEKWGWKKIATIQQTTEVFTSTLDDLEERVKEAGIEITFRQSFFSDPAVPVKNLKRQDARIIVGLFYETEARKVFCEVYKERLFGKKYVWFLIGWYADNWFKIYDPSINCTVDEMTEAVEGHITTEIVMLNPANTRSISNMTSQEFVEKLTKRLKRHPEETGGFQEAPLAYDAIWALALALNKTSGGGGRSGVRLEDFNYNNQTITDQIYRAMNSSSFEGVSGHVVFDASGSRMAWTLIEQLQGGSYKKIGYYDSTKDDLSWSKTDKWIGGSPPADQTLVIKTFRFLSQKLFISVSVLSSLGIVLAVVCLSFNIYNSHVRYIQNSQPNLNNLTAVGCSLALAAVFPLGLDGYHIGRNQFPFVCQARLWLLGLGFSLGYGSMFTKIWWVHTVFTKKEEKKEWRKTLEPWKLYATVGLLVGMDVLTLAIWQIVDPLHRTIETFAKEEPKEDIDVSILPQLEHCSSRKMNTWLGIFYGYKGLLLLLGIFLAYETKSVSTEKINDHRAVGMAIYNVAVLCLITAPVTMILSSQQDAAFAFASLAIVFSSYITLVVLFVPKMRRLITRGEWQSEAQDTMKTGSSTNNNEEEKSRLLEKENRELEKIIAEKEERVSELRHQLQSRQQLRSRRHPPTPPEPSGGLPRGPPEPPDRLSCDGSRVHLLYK
Assay [7] concerns the target 5-hydroxytryptamine receptor 2B (Homo sapiens, UniProt P41595).
The target of assay [8] is T3, Ephrin type-B receptor 3 (Homo sapiens) (UniProt P54753).
T3 sequence (whole entry): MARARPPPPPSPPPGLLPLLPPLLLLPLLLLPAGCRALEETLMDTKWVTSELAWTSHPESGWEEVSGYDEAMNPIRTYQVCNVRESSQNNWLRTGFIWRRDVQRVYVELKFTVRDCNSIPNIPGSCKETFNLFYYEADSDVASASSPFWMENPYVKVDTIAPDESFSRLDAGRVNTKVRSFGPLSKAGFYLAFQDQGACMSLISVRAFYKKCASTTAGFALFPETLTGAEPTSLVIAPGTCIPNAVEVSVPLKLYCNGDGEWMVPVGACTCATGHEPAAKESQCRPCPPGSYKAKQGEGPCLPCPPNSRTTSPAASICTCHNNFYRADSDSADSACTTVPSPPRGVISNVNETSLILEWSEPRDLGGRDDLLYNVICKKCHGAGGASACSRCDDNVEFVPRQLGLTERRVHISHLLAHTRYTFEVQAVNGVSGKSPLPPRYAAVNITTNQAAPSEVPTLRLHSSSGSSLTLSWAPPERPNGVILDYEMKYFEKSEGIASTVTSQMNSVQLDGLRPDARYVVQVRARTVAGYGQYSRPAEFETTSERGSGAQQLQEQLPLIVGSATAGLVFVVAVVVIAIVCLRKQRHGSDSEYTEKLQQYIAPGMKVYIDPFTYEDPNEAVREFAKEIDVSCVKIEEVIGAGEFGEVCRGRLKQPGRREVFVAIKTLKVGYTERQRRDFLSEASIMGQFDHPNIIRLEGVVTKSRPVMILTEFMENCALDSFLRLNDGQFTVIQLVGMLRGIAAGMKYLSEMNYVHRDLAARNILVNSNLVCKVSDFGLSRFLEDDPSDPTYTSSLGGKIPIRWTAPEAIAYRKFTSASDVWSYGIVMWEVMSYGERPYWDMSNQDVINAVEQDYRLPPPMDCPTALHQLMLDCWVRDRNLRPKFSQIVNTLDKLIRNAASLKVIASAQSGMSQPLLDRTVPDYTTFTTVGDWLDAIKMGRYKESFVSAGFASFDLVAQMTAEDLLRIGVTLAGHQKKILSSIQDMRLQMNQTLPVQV
Nature of the assay: EPHB3 Kinase screen. As to conditions: Compound concentration 1.0 uM.

Assay [9] concerns Tyrosine-protein kinase ABL1 (Homo sapiens), P00519 [E255K]. Nature of the assay: ABL1 E255K Kinase screen. Particulars: Compound concentration 1.0 uM.
Assay [10] in a line: Inhibition of Atrial Natriuretic Factor (ANF) at 10 µM in the Eurofins-Panlabs radioligand binding assay (Eurofins_assay_211000). Particulars: Cavia porcellus.
For assay [11], the target named is Proto-oncogene tyrosine-protein kinase ROS (Homo sapiens) (UniProt P08922). Nature of the assay: ROS1 Kinase screen. Particulars: Compound concentration 1.0 uM.
For assay [12], the target named is SRSF protein kinase 1 (Homo sapiens) (UniProt Q96SB4). Nature of the assay: SRPK1 Kinase screen. As to conditions: Compound concentration 1.0 uM.
Assay [13] addresses Melanocortin receptor 4 (Homo sapiens) (UniProt P32245). Nature of the assay: Inhibition of Melanocortin MC4 at 10 µM in the Eurofins-Panlabs radioligand binding assay (Eurofins_assay_251350). Also on record: ligand concentration 0.02 nM. Particulars: Compound concentration 10.0 uM.
The target in assay [14] is Macrophage-stimulating protein receptor (Homo sapiens) (UniProt Q04912). Nature of the assay: MST1R (RON) Kinase screen. Particulars: Compound concentration 1.0 uM.
Assay [15] concerns the target Insulin receptor (Homo sapiens) (UniProt P06213). Nature of the assay: INSR Kinase screen. As to conditions: Compound concentration 1.0 uM.
The target of assay [16] is Mitogen-activated protein kinase 9 (Homo sapiens) (UniProt P45984). Nature of the assay: MAPK9 (JNK2) Kinase screen. As to conditions: Compound concentration 1.0 uM.
Mitogen-activated protein kinase 9 (Homo sapiens), sequence (P45984 whole entry, looked up): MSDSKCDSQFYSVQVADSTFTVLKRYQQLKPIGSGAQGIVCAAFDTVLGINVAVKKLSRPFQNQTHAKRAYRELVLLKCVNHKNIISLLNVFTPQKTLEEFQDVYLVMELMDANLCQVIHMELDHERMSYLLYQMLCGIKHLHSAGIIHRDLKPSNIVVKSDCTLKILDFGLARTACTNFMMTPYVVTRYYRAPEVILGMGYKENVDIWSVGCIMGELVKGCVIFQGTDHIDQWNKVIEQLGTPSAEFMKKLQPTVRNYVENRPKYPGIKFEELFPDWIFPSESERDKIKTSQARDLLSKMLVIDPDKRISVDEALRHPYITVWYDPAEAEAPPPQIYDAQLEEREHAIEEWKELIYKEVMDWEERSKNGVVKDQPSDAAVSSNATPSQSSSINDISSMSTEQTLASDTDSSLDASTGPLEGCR

5-hydroxytryptamine receptor 2B, sequence (P41595 whole entry): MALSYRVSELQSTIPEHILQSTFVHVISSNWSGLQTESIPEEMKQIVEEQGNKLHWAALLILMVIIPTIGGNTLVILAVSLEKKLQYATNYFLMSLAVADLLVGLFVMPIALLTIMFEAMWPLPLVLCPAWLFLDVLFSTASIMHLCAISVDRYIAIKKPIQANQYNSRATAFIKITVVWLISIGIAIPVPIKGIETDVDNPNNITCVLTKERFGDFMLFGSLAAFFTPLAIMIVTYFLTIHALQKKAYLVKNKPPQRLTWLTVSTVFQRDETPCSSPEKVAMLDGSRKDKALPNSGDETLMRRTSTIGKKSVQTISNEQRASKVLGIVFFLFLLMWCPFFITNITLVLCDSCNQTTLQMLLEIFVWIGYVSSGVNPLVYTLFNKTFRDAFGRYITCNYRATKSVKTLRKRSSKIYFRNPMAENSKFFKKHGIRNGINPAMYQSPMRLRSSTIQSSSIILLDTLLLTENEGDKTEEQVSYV
Melanocortin receptor 4 (Homo sapiens), sequence (P32245 whole entry): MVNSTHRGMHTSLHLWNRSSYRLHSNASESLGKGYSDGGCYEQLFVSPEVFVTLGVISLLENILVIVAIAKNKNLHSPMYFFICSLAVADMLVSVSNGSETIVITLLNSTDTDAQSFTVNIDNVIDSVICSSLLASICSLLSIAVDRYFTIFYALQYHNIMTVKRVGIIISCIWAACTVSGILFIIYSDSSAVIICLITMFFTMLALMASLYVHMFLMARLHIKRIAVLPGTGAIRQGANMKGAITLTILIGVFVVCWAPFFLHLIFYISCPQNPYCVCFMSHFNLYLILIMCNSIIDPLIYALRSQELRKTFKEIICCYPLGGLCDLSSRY
Insulin receptor (Homo sapiens), sequence (P06213 28-758 limits assumed): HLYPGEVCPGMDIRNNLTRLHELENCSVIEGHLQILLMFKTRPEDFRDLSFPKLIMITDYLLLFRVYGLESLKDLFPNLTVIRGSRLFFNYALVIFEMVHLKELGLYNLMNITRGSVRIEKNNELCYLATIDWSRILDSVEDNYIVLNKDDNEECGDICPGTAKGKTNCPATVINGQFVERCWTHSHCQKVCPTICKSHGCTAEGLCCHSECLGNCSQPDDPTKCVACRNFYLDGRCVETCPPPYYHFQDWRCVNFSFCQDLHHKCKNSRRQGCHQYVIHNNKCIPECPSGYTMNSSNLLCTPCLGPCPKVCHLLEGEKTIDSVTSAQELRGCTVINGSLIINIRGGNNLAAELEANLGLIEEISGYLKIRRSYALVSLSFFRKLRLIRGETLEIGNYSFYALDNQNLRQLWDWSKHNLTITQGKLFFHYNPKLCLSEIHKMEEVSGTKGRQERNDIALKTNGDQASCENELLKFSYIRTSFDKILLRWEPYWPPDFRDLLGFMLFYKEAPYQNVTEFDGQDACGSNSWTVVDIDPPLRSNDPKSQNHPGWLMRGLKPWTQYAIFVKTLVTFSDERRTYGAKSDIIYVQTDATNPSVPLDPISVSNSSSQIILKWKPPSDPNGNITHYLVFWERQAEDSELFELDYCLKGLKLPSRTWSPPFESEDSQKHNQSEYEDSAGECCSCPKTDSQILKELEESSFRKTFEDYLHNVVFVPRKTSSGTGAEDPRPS
Insulin receptor (Homo sapiens), sequence (P06213 763-1382 limits assumed): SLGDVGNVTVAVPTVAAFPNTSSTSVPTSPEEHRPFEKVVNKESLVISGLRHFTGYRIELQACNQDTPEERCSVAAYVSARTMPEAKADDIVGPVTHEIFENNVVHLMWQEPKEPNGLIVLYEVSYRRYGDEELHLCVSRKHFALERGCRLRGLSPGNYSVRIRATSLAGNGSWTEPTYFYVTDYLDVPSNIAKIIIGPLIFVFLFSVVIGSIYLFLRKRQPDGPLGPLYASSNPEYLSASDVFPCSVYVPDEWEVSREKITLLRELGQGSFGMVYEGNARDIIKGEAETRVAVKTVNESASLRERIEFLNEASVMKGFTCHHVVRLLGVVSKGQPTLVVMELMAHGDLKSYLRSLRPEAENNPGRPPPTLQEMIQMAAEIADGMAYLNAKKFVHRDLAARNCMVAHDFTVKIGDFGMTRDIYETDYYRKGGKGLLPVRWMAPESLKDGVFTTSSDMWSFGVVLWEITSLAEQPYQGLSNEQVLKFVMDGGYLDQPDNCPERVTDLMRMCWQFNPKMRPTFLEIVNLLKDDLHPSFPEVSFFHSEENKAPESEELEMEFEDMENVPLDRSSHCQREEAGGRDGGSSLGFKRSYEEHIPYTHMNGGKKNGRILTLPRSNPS
Ribosomal protein S6 kinase alpha-3 (Homo sapiens), sequence (P51812 whole entry): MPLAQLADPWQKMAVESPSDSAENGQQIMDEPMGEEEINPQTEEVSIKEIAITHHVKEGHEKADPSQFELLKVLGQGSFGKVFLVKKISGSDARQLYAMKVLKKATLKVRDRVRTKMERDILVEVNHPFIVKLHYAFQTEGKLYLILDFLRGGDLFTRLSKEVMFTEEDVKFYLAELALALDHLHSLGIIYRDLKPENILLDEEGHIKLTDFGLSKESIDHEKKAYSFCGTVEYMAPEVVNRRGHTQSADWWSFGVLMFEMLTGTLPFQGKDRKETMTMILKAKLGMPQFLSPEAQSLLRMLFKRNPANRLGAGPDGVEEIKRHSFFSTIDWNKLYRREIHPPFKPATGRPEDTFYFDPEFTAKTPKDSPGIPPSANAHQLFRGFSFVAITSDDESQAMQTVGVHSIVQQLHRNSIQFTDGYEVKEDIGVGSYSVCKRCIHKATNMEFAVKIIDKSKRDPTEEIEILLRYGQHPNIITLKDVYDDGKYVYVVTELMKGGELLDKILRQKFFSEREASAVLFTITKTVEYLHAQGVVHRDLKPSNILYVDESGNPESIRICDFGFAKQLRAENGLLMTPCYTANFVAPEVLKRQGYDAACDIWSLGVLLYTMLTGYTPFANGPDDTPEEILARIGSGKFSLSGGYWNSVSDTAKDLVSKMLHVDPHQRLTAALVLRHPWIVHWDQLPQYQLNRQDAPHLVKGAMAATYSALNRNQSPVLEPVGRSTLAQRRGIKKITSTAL
Muscarinic acetylcholine receptor M2 (Homo sapiens), sequence (P08172 whole entry): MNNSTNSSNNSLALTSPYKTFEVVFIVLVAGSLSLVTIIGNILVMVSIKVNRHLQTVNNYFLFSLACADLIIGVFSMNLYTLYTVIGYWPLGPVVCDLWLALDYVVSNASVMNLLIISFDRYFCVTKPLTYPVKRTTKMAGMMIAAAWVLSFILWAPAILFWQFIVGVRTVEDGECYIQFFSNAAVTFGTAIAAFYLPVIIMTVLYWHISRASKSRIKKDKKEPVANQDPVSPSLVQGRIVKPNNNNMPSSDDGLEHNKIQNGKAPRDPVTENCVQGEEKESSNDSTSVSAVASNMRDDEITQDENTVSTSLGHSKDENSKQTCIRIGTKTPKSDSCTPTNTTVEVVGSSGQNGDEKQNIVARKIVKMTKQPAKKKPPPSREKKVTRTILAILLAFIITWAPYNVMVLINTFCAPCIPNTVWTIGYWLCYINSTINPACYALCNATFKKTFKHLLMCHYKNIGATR

Take `C[C@@H]1CN(c2cc(-c3nn(C)c4ccc(OC5(C)CC5)cc34)ncn2)C[C@H](C)O1` [MLi-2-NC]: the inhibition in assay [1] is 21%.

Take `C[C@@H]1CN(c2cc(-c3n[nH]c4ccc(OC5(C)CC5)cc34)ncn2)C[C@H](C)O1` [MLi-2]: the inhibition in assay [2] is 2.04%; in [3], 0.213%; in assay [4] it was 3.91%; in [5] it was 1.29%; in assay [6], -3%; in [7] (Compound concentration 0.01 uM), -7%. The inhibition is 8% in assay [7] (Compound concentration 0.1 uM); 44% in assay [7] (Compound concentration 1.0 uM); 95% in [7] (Compound concentration 10.0 uM); 9.87% in [8]; 4.43% in assay [9]; 2.52% in assay [11]. Moreover, the inhibition in assay [12] is 6.15%; in [13] it was -6%; in assay [14] it was 1.51%; in assay [15], -0.884%; in assay [16], 19.7%. Also, the inhibition at 10 µM in assay [10] is listed as -2% (not active).
